Results reported in US20240368135A1 (VERTEX PHARMACEUTICALS INCORPORATED, priority 2021, published 2024).
Where two headings read alike, the source gives them in different places.

Molecular target: human NaV 1.8 (Homo sapiens, UniProt Q9Y5Y9)
Assay: E-VIPR assay detecting and measuring NaV inhibition properties
Assay type: cell-based
Details: HEK cells expressing truncated human NaV 1.8
Method in brief: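 Membrane potential was followed by coumarin/oxonol FRET during electrical field stimulation of matrigel-seeded HEK cells carrying truncated human NaV1.8 plus KIR2.1. Dosing used 11 points, 3-fold steps, top 300 nM final, 0.625% DMSO, with or without 25% human serum.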

[1] = no human serum, read-out: IC50 in the E-VIPR Assay

Chain of human NaV 1.8 (Q9Y5Y9 126-399 limits assumed): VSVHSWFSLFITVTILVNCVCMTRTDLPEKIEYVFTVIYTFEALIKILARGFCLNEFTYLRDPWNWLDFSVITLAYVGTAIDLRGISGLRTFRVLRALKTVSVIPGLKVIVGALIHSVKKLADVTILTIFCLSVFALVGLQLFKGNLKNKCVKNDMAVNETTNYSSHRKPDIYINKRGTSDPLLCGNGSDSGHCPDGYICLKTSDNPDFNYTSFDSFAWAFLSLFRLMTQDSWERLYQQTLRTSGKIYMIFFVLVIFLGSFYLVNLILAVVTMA
Chain of human NaV 1.8 (Q9Y5Y9 660-890 limits assumed): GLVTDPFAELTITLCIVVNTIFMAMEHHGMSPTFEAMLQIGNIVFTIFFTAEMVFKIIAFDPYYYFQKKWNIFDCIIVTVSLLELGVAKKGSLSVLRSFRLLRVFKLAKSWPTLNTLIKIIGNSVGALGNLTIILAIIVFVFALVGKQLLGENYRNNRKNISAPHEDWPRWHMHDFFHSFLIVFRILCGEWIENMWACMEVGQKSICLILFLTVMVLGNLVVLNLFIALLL
Chain of human NaV 1.8 (Q9Y5Y9 1148-1722 limits assumed): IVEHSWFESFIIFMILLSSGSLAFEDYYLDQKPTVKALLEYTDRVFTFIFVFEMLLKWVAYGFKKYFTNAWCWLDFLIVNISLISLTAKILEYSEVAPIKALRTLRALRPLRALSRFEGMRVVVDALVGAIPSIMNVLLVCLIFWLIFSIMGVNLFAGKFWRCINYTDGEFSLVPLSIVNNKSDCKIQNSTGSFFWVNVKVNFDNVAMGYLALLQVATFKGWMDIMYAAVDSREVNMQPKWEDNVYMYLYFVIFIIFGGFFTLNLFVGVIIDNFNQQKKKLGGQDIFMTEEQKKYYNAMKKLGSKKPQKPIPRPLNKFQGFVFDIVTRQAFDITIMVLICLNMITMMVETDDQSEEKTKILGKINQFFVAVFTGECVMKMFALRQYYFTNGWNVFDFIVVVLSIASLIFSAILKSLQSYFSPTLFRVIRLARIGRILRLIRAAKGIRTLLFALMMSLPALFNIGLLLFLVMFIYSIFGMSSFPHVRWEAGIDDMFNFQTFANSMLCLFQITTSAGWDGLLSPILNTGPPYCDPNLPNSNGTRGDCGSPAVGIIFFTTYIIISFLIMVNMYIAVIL

Row | SMILES | IC50 [1] [µM] | IC50 (in the presence of human serum (compound numbers followed by *), read-out: IC50 in the E-VIPR Assay, performed in the presence of human serum) [µM]
1 | C[C@@H]1[C@H](c2ccc(F)c(F)c2OC(F)F)[C@@H](C(=O)Nc2ccc(CCO)nc2)O[C@]1(C)C(F)(F)F (single isomer, unassigned) [Compound 459] | ≥ 1 | –
2 | C[C@H]1[C@@H](c2ccc(F)c(F)c2OCCO)[C@H](C(=O)Nc2cnn(CC#N)c2)O[C@@]1(C)C(F)(F)F [Compound 549, (2R,3S,4S,5R)-N-(1-(cyanomethyl)-1H-pyrazol-4-yl)-3-(3,4-difluoro-2-(2-hydroxyethoxy)phenyl)-4,5-dimethyl-5-(trifluoromethyl)tetrahydrofuran-2-carboxamide] | 0.1 to 1 | –
3 | COc1c([C@H]2[C@H](C(=O)Nc3ccc(C(N)=O)nc3)O[C@@](C)(C(F)(F)F)[C@H]2C)cc(O)c(F)c1F [Compound 733, 5-((2R,3S,4S,5R)-3-(3,4-difluoro-5-hydroxy-2-methoxyphenyl)-4,5-dimethyl-5-(trifluoromethyl)tetrahydrofuran-2-carboxamido)picolinamide] | < 0.01 | –
4 | COc1c([C@H]2[C@H](C(=O)Nc3ccc(C4(N)COC4)nc3)O[C@@](C)(C(F)(F)F)[C@H]2C)ccc(F)c1F [Compound 213, (2R,3S,4S,5R)-N-(6-(3-aminooxetan-3-yl)pyridin-3-y1)-3-(3,4-difluoro-2-methoxyphenyl)-4,5-dimethyl-5-(trifluoromethyl)tetrahydrofuran-2-carboxamide] | 0.01 to 0.1 | –
5 | Cc1nocc1NC(=O)[C@@H]1O[C@@](C)(C(F)(F)F)[C@@H](C)[C@H]1c1ccc(F)c(F)c1OCCN1CC(F)C1 [Compound 625, (2R,3S,4S,5R)-3-(3,4-difluoro-2-(2-(3-fluoroazetidin-1-yl)ethoxy)phenyl)-4,5-dimethyl-N-(3-methylisoxazol-4-yl)-5-(trifluoromethyl)tetrahydrofuran-2-carboxamide] | < 0.01 | –
6 | COCC(C)(N)c1cc(NC(=O)[C@@H]2O[C@@](C)(C(F)(F)F)[C@@H](C)[C@H]2c2ccc(F)c(F)c2OC)ccn1 (single isomer, unassigned) [Compound 352, rel-(2R*,3S*,4S*,5R*)-N-(2-(2-amino-1-methoxypropan-2-yl)pyridin-4-yl)-3-(3,4-difluoro-2-methoxyphenyl)-4,5-dimethyl-5-(trifluoromethyl)-tetrahydrofuran-2-carboxamide] | < 0.01 | –
7 | COCCOc1cc(NC(=O)C2OC(C)(C(F)(F)F)C(C)C2c2ccc(F)c(F)c2OC)cnn1 (single isomer, unassigned) [Compound 33, 3-(3,4-difluoro-2-methoxy-phenyl)-N-[6-(2-methoxyethoxy)pyridazin-4-yl]-4,5-dimethyl-5-(trifluoromethyl)tetrahydrofuran-2-carboxamide] | ≥ 1 | –
8 | COc1c([C@H]2[C@H](C(=O)Nc3ccnc(OC4CCN(C)C4=O)c3)O[C@@](C)(C(F)(F)F)[C@H]2C)ccc(F)c1F (single isomer, unassigned) [Compound 197, rel-(2R*,3S*,4S*,5R*)-3-(3,4-difluoro-2-methoxyphenyl)-4,5-dimethyl-N-(2-((1-methyl-2-oxopyrrolidin-3-yl)oxy)pyridin-4-yl)-5-(trifluoromethyl)tetrahydrofuran-2-carboxamide] | < 0.01 | –
9 | C[C@H]1[C@@H](c2ccc(F)c(F)c2O[C@H]2C[C@@H](O)C2)[C@H](C(=O)Nc2cncc(C#N)c2)O[C@@]1(C)C(F)(F)F [Compound 659, (2R,3S,4S,5R)-N-(5-cyanopyridin-3-yl)-3-(3,4-difluoro-2-((1S,3R)-3-hydroxycyclobutoxy)phenyl)-4,5-dimethyl-5-(trifluoromethyl)tetrahydrofuran-2-carboxamide] | 0.01 to 0.1 | –
10 | COc1c([C@H]2[C@H](C(=O)Nc3ccnc(S(N)(=O)=O)c3)O[C@@](C)(C(F)(F)F)[C@H]2C)ccc(F)c1F [Compound 188, (2R,3S,4S,5R)-3-(3,4-difluoro-2-methoxyphenyl)-4,5-dimethyl-N-(2-sulfamoylpyridin-4-yl)-5-(trifluoromethyl)tetrahydrofuran-2-carboxamide] | < 0.01 | –
11 | COc1c([C@H]2[C@H](C(=O)Nc3ccc(C(=O)NS(C)(=O)=O)nc3)O[C@@](C)(C(F)(F)F)[C@H]2C)ccc(F)c1F [Compound 375, 5-[[(2R,3S,4S,5R)-3-(3,4-difluoro-2-methoxy-phenyl)-4,5-dimethyl-5-(trifluoromethyl)tetrahydrofuran-2-carbonyl]amino]-N-methylsulfonyl-pyridine-2-carboxamide] | 0.1 to 1 | –
12 | Cc1cnc(COc2c([C@H]3[C@H](C(=O)Nc4cccnc4)O[C@@](C)(C(F)(F)F)[C@H]3C)ccc(F)c2F)n1C [Compound 651, (2R,3S,4S,5R)-3-(2-((1,5-dimethyl-1H-imidazol-2-yl)methoxy)-3,4-difluorophenyl)-4,5-dimethyl-N-(pyridin-3-yl)-5-(trifluoromethyl)tetrahydrofuran-2-carboxamide] | < 0.01 | –
13 | CCOc1c(C2C(C(=O)Nc3ccnc(S(C)(=N)=O)c3)OC(C)(C(F)(F)F)C2C)ccc(F)c1F (single isomer, unassigned) [Compound 110, 3-(2-ethoxy-3,4-difluoro-phenyl)-4,5-dimethyl-N-[2-(methylsulfonimidoyl)-4-pyridyl]-5-(trifluoromethyl)tetrahydrofuran-2-carboxamide] | < 0.01 | –
14 | COc1c([C@H]2[C@H](C(=O)NCCc3c(C)noc3C)O[C@@](C)(C(F)(F)F)[C@H]2C)ccc(F)c1F [Compound 287, (2R,3S,4S,5R)-3-(3,4-difluoro-2-methoxyphenyl)-N-(2-(3,5-dimethylisoxazol-4-yl)ethyl)-4,5-dimethyl-5-(trifluoromethyl)tetrahydrofuran-2-carboxamide] | ≥ 1 | –
15 | COc1c([C@H]2[C@H](C(=O)Nc3ccnc(C(C)(O)CO)c3)OC(C)(C)[C@H]2C)ccc(F)c1F (single isomer, unassigned) [Compound 731] | 0.1 to 1 | –
16 | COc1c([C@H]2[C@H](C(=O)Nc3cnc(C(F)CO)nc3)O[C@@](C)(C(F)(F)F)[C@H]2C)ccc(F)c1F (stereo partly drawn) [Compound 446, (2R,3S,4S,5R)-3-(3,4-difluoro-2-methoxy-phenyl)-N-[2-(1-fluoro-2-hydroxy-ethyl)pyrimidin-5-yl]-4,5-dimethyl-5-(trifluoromethyl)tetrahydrofuran-2-carboxamide] | 0.01 to 0.1 | –
17 | CNc1ccc(NC(=O)[C@@H]2O[C@@](C)(C(F)(F)F)[C@@H](C)[C@H]2c2ccc(F)c(F)c2OC)cn1 [Compound 524, (2R,3S,4S,5R)-3-(3,4-difluoro-2-methoxy-phenyl)-4,5-dimethyl-N-[6-(methylamino)-3-pyridyl]-5-(trifluoromethyl)tetrahydrofuran-2-carboxamide] | 0.01 to 0.1 | –
18 | Cc1nocc1NC(=O)[C@@H]1O[C@@](C)(C(F)(F)F)[C@@H](C)[C@H]1c1ccc(F)c(F)c1OCCN1CC2CC(C1)O2 [Compound 633, (2R,3S,4S,5R)-3-(2-(2-(6-oxa-3-azabicyclo[3.1.1]heptan-3-yl)ethoxy)-3,4-difluorophenyl)-4,5-dimethyl-N-(3-methylisoxazol-4-yl)-5-(trifluoromethyl)tetrahydrofuran-2-carboxamide] | 0.01 to 0.1 | –
19 | CNS(=O)(=O)c1ccc(NC(=O)[C@@H]2O[C@@](C)(C(F)(F)F)[C@@H](C)[C@H]2c2ccc(F)c(F)c2OC)cn1 [Compound 236, (2R,3S,4S,5R)-3-(3,4-difluoro-2-methoxy-phenyl)-4,5-dimethyl-N-[6-(methylsulfamoyl)-3-pyridyl]-5-(trifluoromethyl)tetrahydrofuran-2-carboxamide] | 0.01 to 0.1 | –
20 | CNC(=O)c1ccc(NC(=O)[C@@H]2O[C@@](C)(C(F)(F)F)[C@@H](C)[C@H]2c2ccc(F)c(C(F)F)c2OC)cn1 (stereo in doubt) [Compound 170, rel-5-((2R,3S,4S,5R)-3-(3-(difluoromethyl)-4-fluoro-2-methoxyphenyl)-4,5-dimethyl-5-(trifluoromethyl)tetrahydrofuran-2-carboxamido)-N-methylpicolinamide] | < 0.01 | –
21 | COc1c([C@H]2[C@H](C(=O)Nc3ccnc(N4C[C@H]5C[C@H](N5)C4=O)c3)O[C@@](C)(C(F)(F)F)[C@H]2C)ccc(F)c1F (single isomer, unassigned) [Compound 491, rel-(2R*,3S*,4S*,5R*)-3-(3,4-difluoro-2-methoxyphenyl)-4,5-dimethyl-N-(2-((1S,5R)-2-oxo-3,6-diazabicyclo[3.1.1]heptan-3-yl)pyridin-4-yl)-5-(trifluoromethyl)tetrahydrofuran-2-carboxamide] | 0.01 to 0.1 | –
22 | COc1c([C@H]2[C@H](C(=O)NC3CN(S(C)(=O)=O)C3)O[C@@](C)(C(F)(F)F)[C@H]2C)ccc(F)c1F [Compound 307, (2R,3S,4S,5R)-3-(3,4-difluoro-2-methoxyphenyl)-4,5-dimethyl-N-(1-(methylsulfonyl)azetidin-3-yl)-5-(trifluoromethyl)tetrahydrofuran-2-carboxamide] | ≥ 1 | –
23 | C[C@H]1[C@@H](c2ccc(F)c(F)c2OCCO)[C@H](C(=O)Nc2cncs2)O[C@@]1(C)C(F)(F)F [Compound 555, (2R,3S,4S,5R)-3-(3,4-difluoro-2-(2-hydroxyethoxy)phenyl)-4,5-dimethyl-N-(thiazol-5-yl)-5-(trifluoromethyl)tetrahydrofuran-2-carboxamide] | 0.01 to 0.1 | –
24 | COc1c([C@H]2[C@H](C(=O)Nc3ccnc(N4C[C@H](C)N(C)CC4=O)c3)O[C@@](C)(C(F)(F)F)[C@H]2C)ccc(F)c1F [Compound 474, (2R,3S,4S,5R)-3-(3,4-difluoro-2-methoxyphenyl)-N-(2-((S)-4,5-dimethyl-2-oxopiperazin-1-yl)pyridin-4-yl)-4,5-dimethyl-5-(trifluoromethyl)tetrahydrofuran-2-carboxamide] | < 0.01 | –
25 | COc1c([C@H]2C[C@@](C)(C(F)(F)F)O[C@@H]2C(=O)Nc2ccnc(C(O)CO)c2)ccc(F)c1F (single isomer, unassigned) [Compound 686] | – | ≥ 1
